Data published in article PMC6961116, “Scaffold-hopping identifies furano[2,3-d]pyrimidine amides as potent Notum inhibitors” (Bioorganic & Medicinal Chemistry Letters, 2020).
Where “and” joins values, the source holds several entries; their conditions need not be identical. Equal entries are not always repeated. Where two headings read alike, the source gives them in different places.

Tests used:
[1] = tested on: MDCK-MDR1 monolayer; details: amides 4, cited from earlier work; for MDCK-MDR1 AB Papp: A to B direction; for MDCK-MDR1 BA Papp: B to A direction
[2] = target: T1, Notum (Homo sapiens, UniProt Q6P988); experiment: Notum TCF/LEF reporter (Luciferase) HEK293 cell assay
T1 sequence (Q6P988 20-496): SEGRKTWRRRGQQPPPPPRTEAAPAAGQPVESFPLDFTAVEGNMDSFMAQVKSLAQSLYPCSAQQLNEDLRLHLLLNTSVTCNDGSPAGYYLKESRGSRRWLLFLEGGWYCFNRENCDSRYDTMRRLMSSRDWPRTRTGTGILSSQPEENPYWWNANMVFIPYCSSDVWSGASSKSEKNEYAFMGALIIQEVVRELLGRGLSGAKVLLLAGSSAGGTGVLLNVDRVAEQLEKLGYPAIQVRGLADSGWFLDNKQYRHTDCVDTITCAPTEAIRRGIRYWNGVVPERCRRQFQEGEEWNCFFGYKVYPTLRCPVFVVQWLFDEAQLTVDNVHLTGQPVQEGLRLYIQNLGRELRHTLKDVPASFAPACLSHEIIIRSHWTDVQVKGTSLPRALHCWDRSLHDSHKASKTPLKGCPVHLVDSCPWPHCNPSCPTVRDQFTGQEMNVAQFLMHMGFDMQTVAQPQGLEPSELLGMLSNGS
Text: Selected compounds were screened for inhibition of Notum activity in a Wnt/β-catenin signaling pathway TCF/LEF Reporter (Luciferase) HEK293 cell line and Notum occupancy in a FP-biotin competition assay.[15], [18]

[3] = Metabolic stability in mouse liver microsomes (MLM); format: in vitro ADME
[4] = tested on: P-gp (MDR1); experiment: MDCK-MDR1 cell permeability and efflux; format: in vitro ADME; details: dog; for efflux ratio: MDCK-MDR1, read-out: MDCK-MDR1 efflux ratio (ER)
[5] = target: T2, Notum (Homo sapiens, UniProt Q6P988, C330S); experiment: Notum enzymatic stability (biochemical assay without OPTS substrate); details: up to 72 h
T2 sequence (Q6P988 81-451 C330S): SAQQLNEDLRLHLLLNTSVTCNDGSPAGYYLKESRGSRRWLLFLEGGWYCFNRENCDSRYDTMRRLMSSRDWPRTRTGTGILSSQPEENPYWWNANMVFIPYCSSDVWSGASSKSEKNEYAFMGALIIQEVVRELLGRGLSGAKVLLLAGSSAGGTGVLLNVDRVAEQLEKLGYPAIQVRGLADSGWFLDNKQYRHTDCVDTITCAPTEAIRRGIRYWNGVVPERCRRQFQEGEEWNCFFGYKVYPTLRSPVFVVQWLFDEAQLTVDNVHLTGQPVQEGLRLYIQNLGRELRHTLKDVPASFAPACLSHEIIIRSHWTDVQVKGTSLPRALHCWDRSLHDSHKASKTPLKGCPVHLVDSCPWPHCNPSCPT

[6] = target: T3, Notum(81–451 Cys330Ser) (Homo sapiens, UniProt Q6P988, C330S); experiment: Notum biochemical OPTS assay (carboxylesterase activity); details: OPTS substrate, 1 h incubation; geometric mean ± s.d.
T3 sequence (Q6P988 81-451 C330S): T2 sequence (Q6P988 81-451 C330S)

[7] = Hydrolytic stability in citrate buffer; format: physicochemical; details: citrate buffer 0.1 M, pH 4, up to 24 h, UPLC-MS
[8] = LogD7.4; format: physicochemical; details: pH 7.4
[9] = Mouse pharmacokinetics, single oral dose; format: in vivo; details: p.o. 10 mg/kg
Experimental: At this point, mouse pharmacokinetic data for 5l was generated in vivo to determine the extent of plasma exposure and to check the correlation of the in vitro ADME data with in vivo outcomes.
Animal Testing Declaration: In vivo mouse pharmacokinetic data was generated at GVK Biosciences, Hyderabad, India. GVK Biosciences is accredited by AAALAC and OLAW for the ethical treatment of animals. All the animal experiments are conducted in accordance with IAEC approved protocols. See: https://www.gvkbio.com/biology-services/in-vivo-pharmacology/

[10] = Aqueous solubility; format: physicochemical; details: read-out: Aq. solubility
[11] = target: T3, Notum(81–451 Cys330Ser); details: thieno[3,2-d]pyrimidine amides 4; OPTS assay; geometric mean ± s.d.; cited from earlier work
[12] = Mouse plasma stability; format: in vitro ADME
Text: However, the ER for 24 was perceived to be within acceptable limits based on established precedent.[22] [table]

[13] = target: CYP3A4 (Homo sapiens, UniProt P08684); experiment: CYP3A4 inhibition; format: in vitro ADME
[14] = target: CYP2C9 (Homo sapiens, UniProt P11712); experiment: CYP2C9 inhibition; format: in vitro ADME
[15] = target: CYP2D6 (Homo sapiens, UniProt P10635); experiment: CYP2D6 inhibition; format: in vitro ADME
[16] = target: T4, CYP2B6 (Homo sapiens, UniProt P20813); experiment: CYP2B6 inhibition; format: in vitro ADME
T4 sequence (P20813 1-491): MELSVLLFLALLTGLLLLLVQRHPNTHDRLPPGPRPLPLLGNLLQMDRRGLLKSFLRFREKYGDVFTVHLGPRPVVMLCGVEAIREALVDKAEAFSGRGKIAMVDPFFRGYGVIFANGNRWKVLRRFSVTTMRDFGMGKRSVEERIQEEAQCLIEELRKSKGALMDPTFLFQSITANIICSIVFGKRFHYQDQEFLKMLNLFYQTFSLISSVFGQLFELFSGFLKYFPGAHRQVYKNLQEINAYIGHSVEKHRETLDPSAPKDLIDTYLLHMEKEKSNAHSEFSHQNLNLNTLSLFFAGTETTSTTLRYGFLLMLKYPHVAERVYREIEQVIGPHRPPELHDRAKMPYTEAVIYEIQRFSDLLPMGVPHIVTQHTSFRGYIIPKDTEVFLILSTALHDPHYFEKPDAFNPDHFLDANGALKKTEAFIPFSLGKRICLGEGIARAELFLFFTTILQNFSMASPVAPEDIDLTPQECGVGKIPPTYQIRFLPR

[17] = target: T5, CYP1A2 (Homo sapiens, UniProt P05177); experiment: CYP1A2 inhibition; format: in vitro ADME
T5 sequence (P05177 1-516): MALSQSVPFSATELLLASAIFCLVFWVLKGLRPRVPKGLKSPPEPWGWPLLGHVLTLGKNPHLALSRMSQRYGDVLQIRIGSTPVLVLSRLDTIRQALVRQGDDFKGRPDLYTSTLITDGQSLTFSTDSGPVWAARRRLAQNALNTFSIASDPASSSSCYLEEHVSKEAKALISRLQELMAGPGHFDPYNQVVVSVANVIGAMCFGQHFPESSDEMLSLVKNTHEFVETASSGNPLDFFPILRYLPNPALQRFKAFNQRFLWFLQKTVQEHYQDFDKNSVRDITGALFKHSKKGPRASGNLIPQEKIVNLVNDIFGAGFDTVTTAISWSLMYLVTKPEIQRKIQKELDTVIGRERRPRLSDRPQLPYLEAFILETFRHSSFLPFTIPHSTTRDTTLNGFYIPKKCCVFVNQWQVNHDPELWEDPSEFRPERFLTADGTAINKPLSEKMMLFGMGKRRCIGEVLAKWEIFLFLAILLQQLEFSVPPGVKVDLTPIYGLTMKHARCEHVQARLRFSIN

[18] = mouse liver microsomes; amides 4; cited from earlier work
[19] = read-out: Notum EC50 (TCF-LEF), rWNT3a 100 ng/mL, Notum 500 ng/mL, geometric mean ± s.d., n = 3–4
[20] = MDCK-MDR1, A to B direction, read-out: MDCK-MDR1 AB Papp
[21] = MDCK-MDR1, B to A direction, read-out: MDCK-MDR1 BA Papp
[22] = C57BL/6, mouse, po, plasma, male C57BL6 mice
[23] = C57BL/6, mouse, po, brain, male C57BL6 mice

Sequence of CYP2D6 (P10635 whole entry): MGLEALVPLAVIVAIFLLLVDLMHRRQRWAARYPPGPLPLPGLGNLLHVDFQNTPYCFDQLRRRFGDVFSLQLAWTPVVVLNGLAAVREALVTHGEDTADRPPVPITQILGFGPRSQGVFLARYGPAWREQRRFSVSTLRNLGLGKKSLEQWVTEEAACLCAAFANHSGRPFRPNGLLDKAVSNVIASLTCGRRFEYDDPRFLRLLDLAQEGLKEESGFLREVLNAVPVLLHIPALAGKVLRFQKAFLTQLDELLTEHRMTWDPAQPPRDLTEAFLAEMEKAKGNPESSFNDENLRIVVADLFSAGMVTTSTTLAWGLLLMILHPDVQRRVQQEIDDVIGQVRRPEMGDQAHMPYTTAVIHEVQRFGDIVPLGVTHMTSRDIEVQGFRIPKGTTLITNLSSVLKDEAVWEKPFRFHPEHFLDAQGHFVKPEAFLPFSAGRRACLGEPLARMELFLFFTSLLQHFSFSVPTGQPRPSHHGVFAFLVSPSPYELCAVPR
Sequence of CYP2C9 (P11712 whole entry): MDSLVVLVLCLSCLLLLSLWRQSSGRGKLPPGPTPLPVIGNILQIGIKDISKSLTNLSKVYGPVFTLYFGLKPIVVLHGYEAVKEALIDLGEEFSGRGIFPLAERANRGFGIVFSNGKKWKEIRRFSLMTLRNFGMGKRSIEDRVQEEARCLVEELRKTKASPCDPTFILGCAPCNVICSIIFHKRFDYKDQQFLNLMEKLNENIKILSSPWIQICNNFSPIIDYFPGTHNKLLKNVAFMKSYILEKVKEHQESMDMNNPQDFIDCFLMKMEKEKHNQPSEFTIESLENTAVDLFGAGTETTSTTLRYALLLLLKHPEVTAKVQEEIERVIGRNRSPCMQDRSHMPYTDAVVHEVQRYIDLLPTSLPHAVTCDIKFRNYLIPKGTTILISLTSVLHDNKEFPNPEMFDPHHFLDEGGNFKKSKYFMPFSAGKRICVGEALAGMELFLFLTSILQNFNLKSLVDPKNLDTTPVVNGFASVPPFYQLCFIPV
Sequence of CYP3A4 (P08684 whole entry): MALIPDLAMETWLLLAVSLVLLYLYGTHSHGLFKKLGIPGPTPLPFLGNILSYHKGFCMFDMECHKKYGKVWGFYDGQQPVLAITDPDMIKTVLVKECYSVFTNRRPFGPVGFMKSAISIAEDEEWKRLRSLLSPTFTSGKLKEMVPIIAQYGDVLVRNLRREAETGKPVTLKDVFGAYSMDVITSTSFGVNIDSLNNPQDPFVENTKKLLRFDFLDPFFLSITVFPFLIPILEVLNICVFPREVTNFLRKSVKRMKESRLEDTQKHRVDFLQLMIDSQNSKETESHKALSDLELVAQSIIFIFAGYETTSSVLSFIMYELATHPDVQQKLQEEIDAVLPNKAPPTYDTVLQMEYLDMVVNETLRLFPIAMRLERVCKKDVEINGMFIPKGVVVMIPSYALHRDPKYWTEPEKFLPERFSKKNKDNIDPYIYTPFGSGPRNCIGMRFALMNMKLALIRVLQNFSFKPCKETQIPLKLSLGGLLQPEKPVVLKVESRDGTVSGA

| SMILES | MLM Cli ([3]; mouse liver microsomes) | Papp [4, 20] | Papp [4, 21] | efflux ratio [4] | IC50 [6] | further results |
| --- | --- | --- | --- | --- | --- | --- |
| O=C1CN(C(=O)CSc2ncnc3c(C4CC4)c(Cl)sc23)CN1 [Compound 4e] | – | – | – | – | – | MDCK-MDR1 AB Papp [1]: 3.8 ×10⁻⁶ cm/s; MDCK-MDR1 BA Papp [1]: 14 ×10⁻⁶ cm/s |
| CN1CN(C(=O)CSc2ncnc3c(C4CC4)c(Cl)sc23)CC1=O [Compound 20] | 45 µL/min/mg | 5.9 ×10⁻⁶ cm/s | 12 ×10⁻⁶ cm/s | 2 | – | EC50 [2]: < 0.25 µM; EC50 [2, 19]: 0.11 µM |
| Cc1sc2ncnc(SCC(=O)N3CCn4cnnc4C3)c2c1Cl [Compound 5f] | 13 µL/min/mg | 0.6 ×10⁻⁶ cm/s | 56 ×10⁻⁶ cm/s | 93 | 0.0032 ± 0.0001 µM | Notum enzymatic stability [5]: only parent was detected; Hydrolytic stability [7]: only parent was detected |
| Cc1sc2ncnc(SCC(=O)N3CC(=O)N(C)C3)c2c1Cl [Compound 5l] | – | 36 ×10⁻⁶ cm/s | 42 ×10⁻⁶ cm/s | – | 0.0024 ± 0.0004 µM | Notum enzymatic stability [5]: only parent was detected; logD [8]: 1.8; Cmax [9, 22]: 120 ng/mL; AUC(0-inf) ([9]; C57BL/6, mouse, po, plasma, male C57BL6 mice, read-out: AUC(0-inf)): 70 ng·h/mL; solubility [10]: 77 µg/mL and 215 µM; Hydrolytic stability [7]: only parent was detected |
| Cc1c(C(F)(F)F)sc2ncnc(SCC(=O)N3CC(=O)N(C)C3)c12 [Compound 22] | 27 µL/min/mg | 31 ×10⁻⁶ cm/s | 35 ×10⁻⁶ cm/s | 1.1 | 0.0016 ± 0.0001 µM | EC50 [2, 19]: 0.21 µM |
| O=C1CN(C(=O)CSc2ncnc3c(C4CC4)c(Cl)sc23)CCN1 [Compound 4d] | – | – | – | – | – | MDCK-MDR1 AB Papp [1]: 7.9 ×10⁻⁶ cm/s; MDCK-MDR1 BA Papp [1]: 65 ×10⁻⁶ cm/s; IC50 [11]: < 0.01 µM |
| Cc1c(C(F)(F)F)oc2ncnc(SCC(=O)N3CC(=O)N(C)C3)c12 [Compound 24, 3-Methyl-1-(2-((5-methyl-6-(trifluoromethyl)furo[2,3-d]pyrimidinyl-4-yl)thio)acetyl)imidazolin-4-one] | 6.9 µL/min/mg | – | – | – | – | MLM Cli ([3]; Table 5): 6.9 μL/min/mg protein; Metabolic stability in MLM (in words) ([3]; mouse liver microsomes): high metabolic stability; Mouse plasma stability (in words) ([12]; after 120 min): no degradation observed; remaining at 2 h ([12]; mouse, plasma, 120 min): 110%; IC50 [13]: > 30 µM; IC50 [14]: > 30 µM; IC50 [15]: > 30 µM; Cmax at 24 h [9, 23]: 1210 ng/g; Tmax [9, 23]: 30 min; AUC(0-inf) at 24 h [9, 22]: 5490 ng·h/mL; AUC(0-t) at 24 h [9, 22]: 5390 ng·h/mL; Cmax at 24 h [9, 22]: 3850 ng/mL; Tmax [9, 22]: 30 min; AUC(0-inf) ([9]; brain, male C57BL6 mice): 1610 ng·h/g; AUC(0-t) ([9]; brain, male C57BL6 mice): 1550 ng·h/g; Cmax[brain] (free drug) ([9]; mouse, free drug): ≈ 0.5 μM; Cmax[plasma] (free drug) ([9]; mouse, free drug): ≈ 2.2 μM; IC50 [16]: > 30 µM; solubility [10]: 45 µg/mL and 120 µM; IC50 [17]: > 30 µM |
| Cc1sc2ncnc(SCC(=O)N3CC(=O)N(C)C3)c2c1C(F)(F)F [Compound 23] | 24 µL/min/mg | – | – | – | 0.007 ± 0.0025 µM | EC50 [2, 19]: 0.17 µM |
| Cc1sc2ncnc(SCC(=O)N3CCNC(=O)C3)c2c1Cl [Compound 5d] | 19 µL/min/mg | 12 ×10⁻⁶ cm/s | 66 ×10⁻⁶ cm/s | 5.5 | 0.0058 ± 0.004 µM | – |
| Cc1sc2ncnc(SCC(=O)N3CCn4ncnc4C3)c2c1Cl [Compound 5t] | 53 µL/min/mg | 19 ×10⁻⁶ cm/s | 49 ×10⁻⁶ cm/s | 2.6 | 0.015 ± 0.003 µM | – |
| Cc1sc2ncnc(SCC(=O)N3CC(=O)N(C)C3)c2c1C [Compound 21] | 31 µL/min/mg | 21 ×10⁻⁶ cm/s | 45 ×10⁻⁶ cm/s | 2.1 | 0.0094 ± 0.0015 µM | Activation of Wnt signaling (in words) ([2]; TCF/LEF reporter, rWNT3a 100 ng/mL, Notum 500 ng/mL): only modest activation of Wnt signaling; EC50 [2, 19]: 1.3 µM |
| Cc1sc2ncnc(SCC(=O)N3CCN(C)C(=O)C3)c2c1Cl [Compound 5g] | 33 µL/min/mg | 23 ×10⁻⁶ cm/s | 62 ×10⁻⁶ cm/s | 2.7 | 0.0062 ± 0.0005 µM | – |
| Cc1sc2ncnc(SCC(=O)N3CCn4c(nnc4C4CC4)C3)c2c1Cl [Compound 5r] | 53 µL/min/mg | 0.8 ×10⁻⁶ cm/s | 78 ×10⁻⁶ cm/s | 97 | 0.027 ± 0.003 µM | – |
| Cc1sc2ncnc(SCC(=O)N3CCn4nc(C(F)(F)F)nc4C3)c2c1Cl [Compound 5v] | 140 µL/min/mg | 15 ×10⁻⁶ cm/s | 27 ×10⁻⁶ cm/s | 1.8 | 0.018 ± 0.005 µM | – |
| CCc1nnc2n1CCN(C(=O)CSc1ncnc3sc(C)c(Cl)c13)C2 [Compound 5q] | 38 µL/min/mg | 0.8 ×10⁻⁶ cm/s | 65 ×10⁻⁶ cm/s | 81 | 0.023 ± 0.005 µM | – |
| O=C(CSc1ncnc2c(C3CC3)c(Cl)sc12)N1CCOCC1 [Compound 4c] | – | – | – | – | – | MLM Cli [18]: >500 µL/min/mg; MDCK-MDR1 AB Papp [1]: 40 ×10⁻⁶ cm/s; MDCK-MDR1 BA Papp [1]: 38 ×10⁻⁶ cm/s |
| O=C(CSc1ncnc2c(C3CC3)c(Cl)sc12)N1CCn2cnnc2C1 [Compound 4f] | – | – | – | – | – | MDCK-MDR1 AB Papp [1]: 0.95 ×10⁻⁶ cm/s; MDCK-MDR1 BA Papp [1]: 93 ×10⁻⁶ cm/s |
